Test results published in ChEMBL document CHEMBL1122762, “(+/-)-3-(4-Amino-1H-pyrrolo[2,3-d]pyrimidin-1-yl)-5-(hydroxymethyl)- (1 alpha,2 alpha,3 beta,5 beta)-1,2-cyclopentanediol, the carbocyclic analogue of tubercidin” (J Med Chem, 1984).

Assays:
HEp-2 [1] = assay: Compound was evaluated for cytotoxicity against H.Ep.-2 cells, and concentration required to inhibit the growth of treated cells to 50% of untreated control.; assay type: functional, cell-based; settings: Homo sapiens
HEp-2 [2] = assay: Compound was evaluated for cytotoxicity against H.Ep.-2 cells and concentration required to inhibit the growth of treated cells to 50% of untreated control was reported; assay type: functional, cell-based; settings: Homo sapiens
HEp-2 [3] = assay: Compound was evaluated for cytotoxicity against H.Ep.-2 (AK-) cells and concentration required to inhibit the growth of treated cells to 50% of untreated control; assay type: functional, cell-based; settings: Homo sapiens
L1210 (1565) [4] = assay: (§1) Compound was evaluated for cytotoxicity against L-1210 (AK-) cells, and concentration required to inhibit the growth of treated cells to 50% of untreated control.; assay type: functional, cell-based; settings: Mus musculus
L1210 (1565) [5] = assay: as §1; assay type: functional, cell-based; settings: Mus musculus; remark: listed apart in the source
L1210 (1565) [6] = assay: Compound was evaluated for cytotoxicity against L-1210 cells, and concentration required to inhibit the growth of treated cells to 50% of untreated control.; assay type: functional, cell-based; settings: Mus musculus
[7] = test system: S-adenosyl-L-homocysteinase (Mus musculus); assay: Inhibition of S-adenosyl-L-homocysteinase from L-1210 cells

Nc1ncnc2[nH]ccc12
IC50 (HEp-2 [1]): > 70 µM

Nc1[nH]ccc2ncnc1-2
IC50 (HEp-2 [2]): 7 µM

Nc1ncnc2c1ccn2[C@@H]1O[C@H](CO)[C@@H](O)[C@H]1O [TUBERCIDIN]
IC50 (HEp-2 [3]): > 3 µM | IC50 (HEp-2 [1]): 0.002 µM

Nc1nccc2c1ncn2[C@@H]1O[C@H](CO)[C@@H](O)[C@H]1O
IC50 (HEp-2 [1]): 20 µM

Nc1ncnc2c1ncn2[C@@H]1O[C@H](CO)[C@@H](O)[C@H]1O [ADENOSINE]
IC50 (HEp-2 [3]): 20 µM | IC50 (HEp-2 [1]): 0.7 µM

Nc1nccc2c1ncn2[C@@H]1C[C@H](CO)[C@H](O)C1O (stereo not given in full)
IC50 (HEp-2 [1]): 0.6 µM | IC50 (L1210 (1565) [4]): 1 µM | IC50 (L1210 (1565) [5]): 1 µM | IC50 (L1210 (1565) [6]): 4 µM

Nc1ncnc2c1ccn2[C@@H]1C[C@H](CO)[C@H](O)C1O (stereo not given in full)
IC50 (HEp-2 [1]): 1.4 µM | IC50 (L1210 (1565) [4]): > 40 µM | IC50 (L1210 (1565) [6]): 4 µM | Ki [7]: 44 µM
